Measured values published in US9164105B2, “Pancreatic cancer biomarker using the characteristics of pancreatic cancer stem cells, and use thereof” (INDUSTRY-ACADEMIC COOPERATION FOUNDATION, YONSEI UNIVERSITY, priority 2012, dated 2015).

Key:
Assay type in all cases: cell-based, human
GLRX3 = GLRX3 mRNA and protein expression in GLRX3 knock-down cell line (PCR and western blot); details: Hpac cell line transfected with shRNA, puromycin-selected clones, vs control shRNA
Procedure: (§1) Selection marker was puromycin ([…]).

Hpac cell line [1] = experiment: Doubling time assay (cell proliferation) of GLRX3 knock-down cell line; details: GLRX3 k/d cell line compared to the control, counted for 5 days
Procedure: as §1

Hpac cell line [2] = experiment: Wound-healing assay of GLRX3 knock-down cell line; details: GLRX3 k/d cell line compared to the control
Procedure: as §1

Hpac cell line [3] = experiment: Sphere culture of GLRX3 knock-down cell line; details: sphere-cultured for 7 days, vs control cell line
Procedure: (§2) For sphere formation, pancreatic cancer cell lines were plated 1000 cell/mL in serum-free DMEM/F12 supplemented with EGF (10 ng/mL, R&D Systems Inc., Minneapolis, Minn.), bFGF ([…], R&D Systems Inc.), 1 ITS (insulin transferring selenium, Gibco) and 0.5% FBS on Corning Costar ultra-low attached 6-well culture dishes (Corning Inc., Corning, N.Y., US), and cultured for 7-10 days. The adherent cells cultured with the same media by attaching on culture plates (Nalgene Nunc Int., Rochester, N.Y.) were used as a control group.
(§3) For clonogenic assay, 0.6% agar in cell media was boiled, hardened on 24-well plate (lower layer media). The cells at density of 1000 cell/well and 0.3% agar-cell media (upper layer media) were mixed, and hardened on lower layer media. Once 0.3% upper layer media was hardened, 500 μL/well of media was added on the upper layer media. Adding the media every third day, the cells were cultured for 3-4 weeks. Afterward, the media on agar was removed, stained with crystal violet to count the number of colony.

Hpac cell line [4] = experiment: Clonogenic assay of GLRX3 knock-down cell line; details: soft agar, 3-4 weeks, vs control cell line
Procedure: as §3

Hpac-spheres = experiment: Inhibition of sphere formation by stem cell signaling inhibitors; details: inhibitor added into sphere culture medium, observed after 7 days
Procedure: as §2
Well-known stem cell signaling inhibitors DAPT (Calbiochem, San Diego, Calif., USA), Cyclopamine-KAAD (Calbiochem, San Diego, Calif., USA), LiCl (Sigma-Aldrich, Inc., St. Louis, Mo.), ATRA (Sigma-Aldrich, Inc., St. Louis, Mo.), OV (Sigma-Aldrich, Inc., St. Louis, Mo.) were added added into sphere culture medium, and cultured. After 7 days, sphere formation was observed.

CFAPC-1 cells = experiment: Fluorescence-Activated Cell Sorting of CD24/CD44/ESA after GLRX3 siRNA transfection; details: 72 hours after transfection; decreased from 70.4% (control)
Procedure: To inhibit GLRX3, siRNA (invitrogen Stealth™ siRNA duplex oligoribonucleotides) to GLRX3 was used. Sense siRNA sequence was UGAGGGAGUUCUUUAGCUAACUCUG, and antisense siRNA sequence was CAGAGUUAGCUAAAGAACUCCCUCA. Med GC (invitrogen) was used as negative control siRNA. CFAPC-1 cells were transfected with GLRX3 or negative control siRNA using RNAiMAX (invtirogen, Carlsbad, Calif., US), and incubated for 72 hours. The cells were treated with accutase (Sigma-Aldrich, St. Louis, Mo.) to prepare suspensions with the same number of single cells. Afterward, the cells were stained with PE-CD24 (BD Biosciences PharMingen, San Diego, Calif.), APC-CD44 (BD Biosciences PharMingen, San Diego, Calif.) and FITC-ESA (BD Biosciences PharMingen, San Diego, Calif.). Fluorescence-Activated Cell Sorting was carried out using BD LSR II (BD Biosciences, Franklin Lakes, N.J.) and analyzed by BD FACSDiva software.

shRNA to GLRX3: shRNA plasmid to GLRX3, sequence GTGGAAATTCTTCACAAACAT (SEQ ID NO:4), used to establish the GLRX3 knock-down Hpac line (guide GTGGAAATTCTTCACAAACAT; listed as Homo sapiens)
Expressions of mRNA and protein of GLRX3 (GLRX3): significantly reduced
cell proliferation rate (Hpac cell line [1]): decreased
cell migration activity (Hpac cell line [2]): decreased
ability to form spheres (Hpac cell line [3]): not formed
colonies formed (viability and proliferation) (Hpac cell line [4]): fewer colonies

[Na+].[Na+].[Na+].[O]=[V]([O-])([O-])[O-] [OV]
ability to form sphere in Hpac-spheres (Hpac-spheres): completely inhibited or reduced

C[C@H](NC(=O)Cc1cc(F)cc(F)c1)C(=O)N[C@H](C(=O)OC(C)(C)C)c1ccccc1 [DAPT]
ability to form sphere in Hpac-spheres (Hpac-spheres): completely inhibited or reduced

CC1=C(/C=C/C(C)=C/C=C/C(C)=C/C(=O)O)C(C)(C)CCC1 [ATRA]
ability to form sphere in Hpac-spheres (Hpac-spheres): completely inhibited or reduced

CC1=C2C[C@H]3[C@@H](CC=C4CC(=O)CC[C@@]43C)[C@@H]2CC[C@]12O[C@@H]1C[C@H](C)CN(CCNC(=O)CCCCCNC(=O)CCc3ccccc3)[C@H]1[C@H]2C [KAAD, Cyclopamine-KAAD]
ability to form sphere in Hpac-spheres (Hpac-spheres): completely inhibited or reduced

[Cl-].[Li+] [LiCl]
ability to form sphere in Hpac-spheres (Hpac-spheres): completely inhibited or reduced

siRNA to GLRX3: Stealth siRNA duplex to GLRX3; sense UGAGGGAGUUCUUUAGCUAACUCUG (SEQ ID NOs:2 and 3) (chain 1 UGAGGGAGUUCUUUAGCUAACUCUG; chain 2 CAGAGUUAGCUAAAGAACUCCCUCA; listed as RNA, chemistry not given here; listed as Homo sapiens)
fraction of CD24+/CD44+/ESA+ (CFAPC-1 cells): 29.3%
